Entries after “also recorded” stand apart in the source; their conditions may differ.

From patent US20080146511A1, “SELECTION METHOD OF PEPTIDES, PEPTIDES, METHOD AND KIT OF INFECTION IDENTIFICATION BY MYCOBACTERIUM LEPRAE, PHARMACEUTICAL OR IMMUNOLOGICAL COMPOSITIONS CONTAINING PEPTIDES OF MYCOBACTERIUM LEPRAE OR SEQUENCES FUNCTIONALLY EQUIVALENT” (Fundacao Oswaldo Cruz - FIOCRUZ, priority 2006, published 2008) come the findings set out here.

This test concerns PBMC (peripheral blood mononuclear cells). The class given is cell-based, human. Details: key to IFN-γ response specificity mark (asterisk): *: Peptides that induced response in leprosy patients only, or contact groups (but not in TB or EC groups) appear with an asterisk. The conditions noted are these: for IFN-γ response specificity mark (asterisk) / specificity of IFN-γ response (PB and HC versus TB, EC, NEC): PBMC, day 5; for IFN-γ response specificity mark (asterisk): peptide 10 μg/ml, leprosy patients/contacts vs TB and EC groups; for IFN-γ responses in groups TB and EC: PBMC of TB patients and endemic controls, day 5, cutoff 125 pg/ml; for IFN-γ responses in groups TB and EC / specificity of IFN-γ response (PB and HC versus TB, EC, NEC): 10 μg/ml; for comparison of IFN-γ levels between groups (ANOVA, Tukey post hoc): PB, MB, HC, TB, EC.

Regarding “LDDFLSLQRSISPNS [p42, M. leprae ML0126 aa 250-264]”, the “IFN-γ response specificity mark (asterisk)” value is recorded as “p42*”.

Turning to “KKRLTLLSGAMARRA [p82, M. leprae ML0394c aa 141-155]”, the “IFN-γ response specificity mark (asterisk)” value is recorded as “p82*”.

Take “VKAVVDDVNAILLTGR [p74, M. leprae ML1915 aa 89-104]”: the “IFN-γ response specificity mark (asterisk)” value was “p74*”.

As for “GINLPKDELTAFGRK [p63, M. leprae ML0757c aa 6-20]”, the “IFN-γ response specificity mark (asterisk)” value is listed as “p63*”.

Regarding “RVSYGSECRSGNCLR [p40, M. leprae ML0008c aa 107-121]”, the “IFN-γ response specificity mark (asterisk)” value is recorded as “p40*”.

Take “NHAVSSDFKTRSTNT [p54, M. leprae ML2567 aa 72-86]”: the “IFN-γ response specificity mark (asterisk)” value is reported as “p54*”.

Take “TIEFLWQEGHSAHIE [p72, M. leprae ML1553 proS aa 154-168]”: the “IFN-γ responses in groups TB and EC” value was “induced responses in individuals in groups TB and EC; also recorded: most frequent responses in groups EC or TB”.

“GRYYAEINSAKMYFG [p49, M. leprae ML1057 aa 10-24]”: the “IFN-γ response specificity mark (asterisk)” value is “p49*”.

“MATIRTVRNLKLCNP [p37, M. leprae ML0008c aa 1-15]”: the “IFN-γ responses in groups TB and EC” value is reported as “induced unexpected responses in groups EC or TB”.

In the case of “TRLLTVVVKQRSKAF [p38, M. leprae ML0008c aa 21-35]”, the “IFN-γ response specificity mark (asterisk)” value was “p38*”.

As to “AILYRKIHGQDPAER [p60, M. leprae ML0398c aa 288-302]”, the “IFN-γ responses in groups TB and EC” value was “induced responses in individuals in groups TB and EC”.

With “MQEYRGLTSHTPCCR [p70, M. leprae ML1420 aa 93-107]”, the “IFN-γ response specificity mark (asterisk)” value is listed as “p70*”.

On to “DSTDTTDWSTAMTDA [p77, M. leprae ML2703 trxB aa 331-335]”, for which the “IFN-γ response specificity mark (asterisk)” value is recorded as “p77*”.

Regarding “GDVWKSIVHLRSTRH [p81, M. leprae ML0126 aa 180-194]”, the “IFN-γ response specificity mark (asterisk)” value is reported as “p81*”.

As for “LQAYSNLFGRTSAMQ [p92, M. leprae ML2452c aa 28-42]”, the “capacity to discriminate PB patients from exposed healthy individuals (HC)” value (shortened to “capacity to discriminate PB patients”) is given as “discriminate individuals with known infection by Mycobacterium leprae (patients PB) from those individuals exposed to said microorganism, but healthy”; the “comparison of IFN-γ levels between groups (ANOVA, Tukey post hoc)” value (“comparison” below) was “induced the same kind of response”; the “IFN-γ response specificity mark (asterisk)” value was “p92*”.

“FDEYRAMFALSAMDL [p56, M. leprae ML0308 aa 17-31]”: the “IFN-γ response specificity mark (asterisk)” value is “p56*”.

With “THAFDLVLSSHLLFT [p57, M. leprae ML0308 aa 139-153]”, the “IFN-γ responses in groups TB and EC” value is “induced responses in individuals in groups TB and EC”.

With “QLLGQTADV [p52, M. leprae ML1057 aa 59-67]”, the “specificity of IFN-γ response (PB and HC versus TB, EC, NEC)” value was “specific, inducing good responses in groups PB and HC, and no response in groups TB, EC or NEC”; the “IFN-γ response specificity mark (asterisk)” value is “p52*”.

“EAVLLRLDGTTLEVE [p65, M. leprae ML1419c aa 108-122]”: the “specificity of IFN-γ response (PB and HC versus TB, EC, NEC)” value is “specific, inducing good responses in groups PB and HC, and no response in groups TB, EC or NEC”; the “IFN-γ response specificity mark (asterisk)” value was “p65*”.

On to “DDIWRTLASAVITGN [p88, M. leprae ML1189c aa 55-69]”, for which the “IFN-γ response specificity mark (asterisk)” value is “p88*”.

With “QLMYLIEITSETKAL [p48, M. leprae ML0394c aa 22-36]”, the “IFN-γ response specificity mark (asterisk)” value is listed as “p48*”.

In the case of “QVIFRDLTTQKAAEE [p66, M. leprae ML1419c aa 137-151]”, the “IFN-γ response specificity mark (asterisk)” value is recorded as “p66*”.

For the sequence “GMDVGKVEALKIDGD [p93, M. leprae ML2591 mce1C aa 62-76]”, the “IFN-γ responses in groups TB and EC” value is on record as “most frequent responses in groups EC or TB”.

As to “LTVVVKQRSKAFRPS [p39, M. leprae ML0008c aa 24-38]”, the “IFN-γ response specificity mark (asterisk)” value was “p39*”.

For “LNQLVSLVKQIFVQQ [p47, M. leprae ML0394c aa 73-87]”, the “IFN-γ response specificity mark (asterisk)” value is recorded as “p47*”.

For “LATVQYDDRRRFTKE [p91, M. leprae ML2347 aa 301-315]”, the “capacity to discriminate PB patients” value is recorded as “discriminate individuals with known infection by Mycobacterium leprae (patients PB) from those individuals exposed to said microorganism, but healthy”; the “comparison” value is given as “induced the same kind of response”; the “IFN-γ response specificity mark (asterisk)” value is given as “p91*”.

Turning to “VGKVQGLLARLLTLP [p76, M. leprae ML2498 aa 75-89]”, the “IFN-γ response specificity mark (asterisk)” value is reported as “p76*”.

Regarding “LLEEGVIVL [p68, M. leprae ML1419c aa 267-275]”, the “capacity to discriminate PB patients” value is “discriminate individuals with known infection by Mycobacterium leprae (patients PB) from those individuals exposed to said microorganism, but healthy”; the “comparison” value was “induced the same kind of response”; the “IFN-γ response specificity mark (asterisk)” value is reported as “p68*”.

For the sequence “LDIYTTLARDMAAIP [p71, M. leprae ML1553 proS aa 180-194]”, the “IFN-γ response specificity mark (asterisk)” value is given as “p71*”.

Regarding “DDFLSLQRSISPNSY [p44, M. leprae ML0126 aa 251-265]”, the “IFN-γ response specificity mark (asterisk)” value is reported as “p44*”.

In the case of “RLDGTTLEV [p69, M. leprae ML1419c aa 113-121]”, the “comparison” value is “significantly higher in HC (p=0.02) and in PB (p=0.01)”; the “specificity of IFN-γ response (PB and HC versus TB, EC, NEC)” value is “specific, inducing good responses in groups PB and HC, and no response in groups TB, EC or NEC”; the “IFN-γ response specificity mark (asterisk)” value is “p69*”.

Take “VYLYNYLLAETSHVL [p86, M. leprae ML0840c aa 287-301]”: the “IFN-γ response specificity mark (asterisk)” value is “p86*”.

On to “LILGLLPAI [p61, M. leprae ML0398c aa 16-24]”, for which the “specificity of IFN-γ response (PB and HC versus TB, EC, NEC)” value is listed as “more specific than longer 15-mer peptide”; the “IFN-γ response specificity mark (asterisk)” value was “p61*”.

“GNAMTTLGGRGISVV [p79, M. leprae ML0098 fbpC aa 84-98]”: the “IFN-γ responses in groups TB and EC” value was “induced responses in individuals in groups TB and EC; also recorded: most frequent responses in groups EC or TB”.

For “RRTVKILRPLPSNIT [p53, M. leprae ML2567 aa 95-109]”, the “IFN-γ response specificity mark (asterisk)” value is listed as “p53*”.

For the sequence “SGRVTYLNPVGVKWM [p67, M. leprae ML1419c aa 51-65]”, the “capacity to discriminate PB patients” value is on record as “discriminate individuals with known infection by Mycobacterium leprae (patients PB) from those individuals exposed to said microorganism, but healthy”; the “comparison” value is “higher in PB”; the “IFN-γ response specificity mark (asterisk)” value is “p67*”.

For “YGQVVRDVENTLRYL [p80, M. leprae ML0126 aa 125-139]”, the “IFN-γ response specificity mark (asterisk)” value is “p80*”.

On to “DAEWLKLTSLGLRPR [p73, M. leprae ML1829 aa 108-122]”, for which the “IFN-γ response specificity mark (asterisk)” value is given as “p73*”.

Turning to “DATFQVIFSQHVHLS [p83, M. leprae ML0394c aa 97-111]”, the “IFN-γ response specificity mark (asterisk)” value is on record as “p83*”.

Take “LQPYRLLRGGDSEYW [p75, M. leprae ML2177c aa 169-183]”: the “capacity to discriminate PB patients” value was “discriminate individuals with known infection by Mycobacterium leprae (patients PB) from those individuals exposed to said microorganism, but healthy”; the “comparison” value was “significantly higher in HC”; the “IFN-γ response specificity mark (asterisk)” value is on record as “p75*”.

In the case of “AAALEQLLGQTADVA [p51, M. leprae ML1057 aa 54-68]”, the “specificity of IFN-γ response (PB and HC versus TB, EC, NEC)” value was “specific, inducing good responses in groups PB and HC, and no response in groups TB, EC or NEC”; the “IFN-γ response specificity mark (asterisk)” value is reported as “p51*”.
